The experiment addresses Beta-secretase 1 (Homo sapiens, UniProt P56817). Description: Inhitbition Assay: 48.5 µL of substrate peptide solution (Biotin-XSEVNLDAEFRHDSGC-Eu: X=ε-amino-n-capronic acid, Eu=Europium cryptate) was added to each well of 96-hole half-area plate (a black plate: Costar), and after addition of 0.5 µl of the test compound (dissolved in N,N'-dimethyl formaldehyde) and 1 µl of Recombinant human BACE1(R&D Systems), the reaction mixture was incubated at 30° C. for 3 hours. The substrate peptide was synthesized by reacting Cryptate TBPCOOH mono SMP (CIS bio international) with Biotin-XSEVNLDAEFRHDSGC (Peptide Institute, Inc.). The final concentrations of the substrate peptide and Recombinant human BACE1 were adjusted to 18 nmol/L and 7.4 nmol/L, respectively, and the reaction was performed in sodium acetate buffer (50 mmol/L sodium acetate, pH 5.0, 0.008% Triton X-100).After the incubation for reaction, 50 µl of 8.0 µg/ml Streptavidin-XL665 (CIS bio international) dissolved in phosphate buffer.

Beta-secretase 1, sequence (P56817 whole entry): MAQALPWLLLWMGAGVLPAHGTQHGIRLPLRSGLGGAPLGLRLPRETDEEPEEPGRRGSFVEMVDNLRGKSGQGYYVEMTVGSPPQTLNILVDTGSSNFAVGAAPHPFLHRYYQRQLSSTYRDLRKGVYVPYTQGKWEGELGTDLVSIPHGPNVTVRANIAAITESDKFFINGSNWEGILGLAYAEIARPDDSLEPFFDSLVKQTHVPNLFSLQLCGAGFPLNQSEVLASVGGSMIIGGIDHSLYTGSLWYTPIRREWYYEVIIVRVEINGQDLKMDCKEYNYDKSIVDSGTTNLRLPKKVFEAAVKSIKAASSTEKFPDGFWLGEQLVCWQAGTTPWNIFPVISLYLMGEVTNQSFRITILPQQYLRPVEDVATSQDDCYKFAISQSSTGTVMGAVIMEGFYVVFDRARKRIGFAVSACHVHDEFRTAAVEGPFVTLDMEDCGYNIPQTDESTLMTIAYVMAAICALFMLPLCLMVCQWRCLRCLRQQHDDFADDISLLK

One may read the IC50 as the concentration that inhibits the measured activity by half. For `CC1=C[C@@](C)(c2cc(NC(=O)c3ccc(C(F)(F)F)cn3)ccc2F)N=C(N)O1`, the IC50 was less than 30 µM.

Turning to `CC1=C[C@@](C)(c2cc(NC(=O)c3ccc(Cl)cn3)ccc2F)N=C(N)O1`, the 50% inhibitory concentration (IC50) was less than 30 µM.

For the molecule `CC1=C[C@@](C)(c2cc(NC(=O)c3ncc(C#N)cc3F)ccc2F)N=C(N)O1`, the IC50 was less than 30 µM.

Take `CC1=C[C@@](C)(c2cc(NC(=O)c3ncc(F)cc3F)ccc2F)N=C(N)O1`: the IC50 is less than 30 µM.

In the case of `C[C@@]1(c2cc(NC(=O)c3ncc(F)cc3F)ccc2F)CCOC(N)=N1`, the IC50 was less than 30 µM.

Turning to `C[C@@]1(c2cc(NC(=O)c3ccc(C#N)cn3)ccc2Cl)CCOC(N)=N1`, the IC50 is less than 30 µM.

For `COc1cnc(C(=O)Nc2ccc(F)c([C@]3(C)C=C(C)OC(N)=N3)c2)cn1`, the IC50 was less than 30 µM.

Values taken from ChEMBL document CHEMBL3638961, “Oxazine derivatives” (2015).
